# Results from patent US10370391B2, “Hydrogen peroxide-activable, anti-oxidant compounds and methods using same” (Beth Israel Deaconess Medical Center, Inc., priority 2014, dated 2019).
# What was measured:
# [1] = H2O2 scavenging by peroxalate chemiluminescence (diphenyl oxalate, rubrene); settings: H2O2 solution 10 μM; HBA alone 10 μM
# Procedure: FIG. 21 is a bar graph illustrating H2O2-scavenging by BRAP-encapsulated PLGA microparticles. BRAP-encapsulated PLGA microparticles were incubated in H2O2 solution (10 μM) for 10 minutes, and the level of H2O2 was determined by peroxalate chemiluminesce using rubrene (1 mg) and diphenylperoxalate (10 mg).
# Without wishing to be limited by any theory, BRAP could scavenge H2O2 during its H2O2-mediated boronate oxidation. This possibility was investigated using peroxalate chemiluminescence. Peroxalate chemiluminescence has been used as a versatile tool for the detection of a variety of chemical species including fluorescent molecules and H2O2 because of its excellent specificity and simplicity (Hadd, et al., 1999, J. Chem. Educ. 76:1237; Lee, et al., 2011, Bull. Korean Chem. Soc. 32:2187). […] A majority of H2O2 was scavenged by the same concentration of BRAP within 1 minutes.
# The ability of the boronate compound to scavenge H2O2 was evaluated by measuring the chemiluminescence intensity after the reaction with diphenyl oxalate solution including rubrene. The boronate (1 μM, or 10 μM) was added in the H2O2 solution (10 μM). After 1 min reaction with H2O2, diphenyl oxalate solution was added to the H2O2 solution, and the chemiluminescence intensity was measured by using a luminometer (Femtomaster FB 12, Zylux Corporation, TN, US; FIG. 13).
# The ability of BRAP to scavenge H2O2 was evaluated by measuring the chemiluminescence intensity after the reaction with diphenyl oxalate solution including rubrene. BRAP (1 μM, 5 μM, 10 μM, 20 μM) was added in the H2O2 solution (10 μM). After 1, 5 or 10 min reaction with H2O2, diphenyl oxalate solution was added to the H2O2 solution, and the chemiluminescence intensity was measured by using a luminometer (Femtomaster FB 12, Zylux Corporation, TN, US).
# [2] = tested on: mouse macrophage (RAW 264.7) cells stimulated by LPS; assay: Intracellular ROS generation in LPS-stimulated macrophages (DCFH-DA, flow cytometry); assay type: cell-based; settings: HBA 0.5 mM; LPS 1 μg/mL
# Procedure: (§1) FIG. 4, comprising FIGS. 4A-4F, is a set of graphs, bar graphs and images illustrating anti-oxidant and anti-inflammatory effects of BRAP in vitro. […] The generation of ROS was monitored by flow cytometry as an indicator of DCF fluorescence. Fluorescence was analyzed in 10,000 cells with excitation at 480 nm and emission at 530 nm. FIG. 4C: Protective effect of BRAP on H2O2— stimulated adult rat cardiomyocytes. V=vehicle, *<0.05 vs. V+H2O2 (n=4). […] (n=4/group).
# The anti-oxidant activities of BRAP were examined using mouse macrophage (RAW 264.7) and fibroblast (NIH/3T3) cells stimulated by LPS (lipopolysaccharide) (FIGS. 4A-4B). Intracellular ROS production in the stimulated cells was analyzed by flow cytometry using DCFH-DA ([…]-diacetate), which can be oxidized by the action of various intracellular oxidants such as H2O2 and hydroxyl radical to become fluorescent […] (DCF) (Kim, et al., 2011, Biomat. 32:3021; Cho, et al., 2012, Adv. Funct. Mat. 22:4038). Untreated cells have no significant DCF fluorescence.
# [3] = tested on: nitric oxide production in LPS-treated cells; assay: Nitric oxide generation in LPS-treated cells (Griess reaction); assay type: cell-based; settings: HBA alone
# Procedure: as §1
# Nitric oxide is one of major sources of oxidative stress and a well-known pro-inflammatory mediator in the pathogenesis of inflammation (Lundberg, et al., 1997, Nature Medicine 3:30). The effects of BRAP on the generation of nitric oxide in LPS-treated cells were studied using a colorimetric assay based on the Griess reaction.
# TNF-α = TNF-α level in LPS-stimulated macrophage cells; assay type: cell-based, mouse
# Procedure: as §1
# (§2) The anti-inflammatory effects of BRAP on LPS-stimulated cells were investigated by measuring the level of inflammatory cytokines such as TNF-α (tumor necrosis factor-alpha) and iNOS (inducible nitric oxide synthases) (FIGS. 4E-4F). […] These observations indicate that BRAP, as well as BRAP-encapsulated PLGA microparticles, is able to scavenge overproduced H2O2 and serve as a H2O2-activable anti-oxidant. Further, the enhanced anti-oxidant activity of BRAP is derived from the combined effects of H2O2-scavenging boronic esters and HBA generation after H2O2-mediated boronate oxidation.
# iNOS = iNOS level in LPS-stimulated macrophage cells; assay type: cell-based, mouse
# Procedure: as §1, §2
# hepatic I/R injury = assay: Mouse model of hepatic I/R injury; assay type: in vivo; settings: ip at reperfusion
# Procedure: FIG. 5, comprising FIGS. 5A-5D, is a set of images and bar graphs illustrating beneficial effects of BRAP in hepatic I/R (1 hour ischemia/12 hour reperfusion) injury. FIG. 5A: Hematoxylin and eosin (H/E) staining, DHE staining, and TUNEL staining of mouse liver after injection with HBA or BRAP. FIGS. 5B-5D: Quantitative analysis of serum ALT levels (FIG. 5B), cleaved caspase-3 protein expression (FIG. 5C), and TNF-α protein expression (FIG. 5D) after I/R injury. *p<0.01 relative to Veh I/R. †p<0.05 relative to HBA I/R (n=3˜4/group). Actin protein expression was used as an internal control for protein loading.
# Experiments to evaluate whether BRAP reduces ROS generation and inhibits apoptosis were performed in a mouse model of […] I/R injuries. I/R was induced first by 1 hour of ligation of hepatic artery and portal vein followed by reperfusion of hepatic artery. BRAP or HBA was then administrated intraperitoneally (ip) at the time of reperfusion.
# Hepatic I/R surgery was performed in 12 week-old male mice. Briefly, mice were anaesthetized, and midline incision was performed for laparotomy. After identifying the portal triad and biliary tree, the main trunk of hepatic artery and portal vein were clamped with vascular clip except for the vasculatures to the right lower lobe to achieve ischemic injury to approximately 70% of the liver. After 1 hour of ischemia, reperfusion was achieved by releasing the vascular clip. No vascular clamp was done for the sham group of mice.
# For liver apoptosis assay, terminal deoxynucleotidyl transferase dUTP nick end labeling (TUNEL) staining was performed using a DeadEnd™ Fluorometric TUNEL kit (Promega, Madison, Wis.). Tissue sections were stained for nuclei (4′,6-diamidino-2-phenylindole (DAPI) staining) and apoptotic nuclei (TUNEL staining) and analyzed using a confocal laser scanning microscope. For heart tissues, TUNEL staining was performed using in situ cell death detection Kit, fluorescein (Roche Applied Science, Indianapolis, Ind.). To distinguish cardiomyocyte from non-cardiomyocyte nuclei, triple stain for nuclei (DAPI staining), apoptotic nuclei (TUNEL staining), and cardiomyocytes (α-Actinin staining) was used, and the stained sections were analyzed using confocal microscopy. A minimum of ˜10 high power fields with ˜2000 nuclei/field were counted for each sample.
# Heart tissues were collected for molecular analyses were performed in Bae, et al., 2010, Am J Physiol Heart Circ Physiol 299:H1374. For RT-PCR ribosomal 18S primers acted as internal controls and all RT-PCR signals were normalized to the 18S signal of the corresponding RT products. For Western blot analysis, the protein content was measured using BCA assay. Actin protein expression was used as an internal control for protein loading.
# The optimal cutting temperature (OCT)-embedded tissues were fixed in 4% paraformaldehyde. Tissue sections were incubated with 5 μM dihydroethidium (DHE, Sigma-Aldrich) at 37° C. for 30 min in a humidified chamber protected from light. Then, 4′,6-diamidino-2-phenylindole (DAPI) was applied. Images were acquired by confocal fluorescence microscope.
smiles,measurement,setting,value
"OCc1ccc(O)cc1 [HBA, 4-hydroxybenzyl alcohol, reference compound]",chemiluminescence intensity (H2O2 scavenging),[1],did not reduce chemiluminescence intensity
same,inhibition of LPS-induced ROS generation,[2],moderate inhibitory effects
same,concentration at which nitric oxide production was inhibited,[3],higher than 0.5 mM
same,TNF-α level,TNF-α,reduced the expression of TNF-α but only at a higher dose than BRAP
same,iNOS level,iNOS,failed to reduce iNOS level
same,ROS generation (DHE staining) in liver,hepatic I/R injury,suppressed
same,protection from I/R-induced liver damage (serum ALT),hepatic I/R injury,much less potent protective effect
same,"hepatic damages (histology, H/E)","hepatic I/R injury; 1 hour ischemia/12 hour reperfusion, same dose of HBA and BRAP",minimal therapeutic effects
same,TNF-α protein expression,hepatic I/R injury; same dose of HBA and BRAP,minimal inhibitory effects
same,cleaved caspase-3 protein expression,hepatic I/R injury; same dose of HBA and BRAP,minimal inhibitory effects
same,hepatic apoptosis (TUNEL),hepatic I/R injury; same dose of HBA and BRAP,modest inhibitory effects
